Values of other authors in patent US20240350489A1, “LOU064 FOR TREATING MULTIPLE SCLEROSIS” (NOVARTIS AG, priority 2021, published 2024).
“Also recorded” adds a separate entry of the source. Like-named read-outs stand apart in the source and are kept apart here.

Key:
[1] = test system: experimental autoimmune encephalomyelitis (EAE); settings: cited from earlier work
[2] = cited from earlier work
[3] = cited from earlier work; remark: listed apart in the source

Compound	efficacy in EAE ([1]; 3 mg/kg)	efficacy in EAE ([1]; 10 mg/kg vs 3 mg/kg)	elevations of ALT, AST and lipase ([2]; 75 mg once daily and twice daily)	brain lesions and relapses ([2]; 75 mg once or twice per day vs placebo or dimethyl fumarate)	dose-limiting side effects ([3]; human, in vivo)	MS lesion development ([3]; mid-stage trials)	most frequent adverse events ([3]; mid-stage trials)
C=CC(=O)N1CCC(CNc2ncnc(N)c2-c2ccc(Oc3ccccc3)cc2)CC1 [evobrutinib]	effective	did not further improve the effect	dose-limiting liver enzyme elevations; also recorded: higher frequency of elevations	trend toward developing fewer brain lesions and experiencing fewer relapses	–	–	–
C=CC(=O)N1CCC[C@@H](n2c(=O)n(-c3ccc(Oc4ccccc4)cc3)c3c(N)nccc32)C1 [tolebrutinib]	–	–	–	–	dose-limiting diarrhea	reduction in MS lesion development	headaches and cold-like symptoms
